Measured values reported in patent US20220395472A1 (Dermavant Sciences GmbH, priority 2021, published 2022).

System: adults with plaque psoriasis
Test: Long-term extension study (PSOARING 3): Dermatology Life Quality Index (DLQI)
Format: in vivo, human
Design: key to DLQI Total Score, Observed, Mean / DLQI Total Score, Observed, Median: DLQI total score 0–30; higher = greater quality-of-life impairment
Source text: Subjects completed the DLQI questionnaire. The DLQI is a simple, validated, dermatology specific, 10 question questionnaire to assess the impact of the disease on a subject's quality of life. The DLQI is an important outcome measure in dermatology clinical trials and is the most frequently used instrument in randomized, controlled dermatology trials. The DLQI can be analyzed as a total score (where a higher score indicates greater impairment in quality of life) and can also be scored for the following dimensions: Symptoms and Feelings (Items 1 and 2), Daily Activities (Items 3 and 4), Leisure (Items 5 and 6), Work and School (Item 7), Personal Relationships (Items 8 and 9), and Treatment (Item 10).
The DLQI is a 10 item subject reported outcome, 6 domain measure that assessed the extent to which the skin condition had affected the subject's quality of life over the past week. The total score (0 to 30) is the sum of 10 questions with each ranging from 0 to 3. The DLQI was assessed at 4 week intervals. If one question was left unanswered, this was scored as 0 and the scores were summed and expressed as usual out of a maximum of 30. If ≥2 questions were left unanswered, the total DLQI score was considered missing.
DLQI total score and sub scores on DLQI domains and their changes from baseline as well as percent change from baseline values were summarized descriptively. Additional details of the analysis of the DLQI are provided in the SAP.

[1] = Week 16 OC, Tapinarof (Pivotal)
[2] = Week 40 OC, Tapinarof (Pivotal)

CC(C)c1c(O)cc(/C=C/c2ccccc2)cc1O [Tapinarof, 3,5-Dihydroxy-4-isopropyl-trans-stilbene]
DLQI Total Score, Observed, Mean (Baseline, Overall): 4.3
DLQI Total Score, Observed, Median (Baseline, Overall): 2.0
DLQI Total Score, Observed, Mean (Baseline, Tapinarof (Pivotal)): 3.3
DLQI Total Score, Observed, Median (Baseline, Tapinarof (Pivotal)): 2.0
mean (SD) DLQI total score (Week 16, OC, Tapinarof (Pivotal) group): 2.0 (3.23)
mean (SD) DLQI total score (Week 16, OC, Vehicle (Pivotal) group): 3.0 (5.19)
DLQI Total Score, CFBL, Mean (Week 16 OC, Overall): −1.7
DLQI Total Score, CFBL, Median (Week 16 OC, Overall): −1.0
DLQI Total Score, Observed, Mean (Week 16 OC, Overall): 2.3
DLQI Total Score, Observed, Median (Week 16 OC, Overall): 1.0
DLQI Total Score, Percent CFBL, Mean (Week 16 OC, Overall): −30.7%
DLQI Total Score, Percent CFBL, Median (Week 16 OC, Overall): −60.0%
mean (SD) DLQI total score (Week 16 OC, Overall): 2.3 (4.02)
DLQI Total Score, CFBL, Mean [1]: −1.0
DLQI Total Score, CFBL, Median [1]: 0.0
DLQI Total Score, Observed, Mean [1]: 2.0
DLQI Total Score, Observed, Median [1]: 1.0
DLQI Total Score, Percent CFBL, Mean [1]: −21.3%
DLQI Total Score, Percent CFBL, Median [1]: −50.0%
DLQI Total Score, CFBL, Mean (Week 16 OC, Vehicle (Pivotal)): −3.1
DLQI Total Score, CFBL, Median (Week 16 OC, Vehicle (Pivotal)): −3.0
DLQI Total Score, Observed, Mean (Week 16 OC, Vehicle (Pivotal)): 3.0
DLQI Total Score, Observed, Median (Week 16 OC, Vehicle (Pivotal)): 1.0
DLQI Total Score, Percent CFBL, Mean (Week 16 OC, Vehicle (Pivotal)): −45.9%
DLQI Total Score, Percent CFBL, Median (Week 16 OC, Vehicle (Pivotal)): −73.0%
mean (SD) DLQI total score (Week 40, OC, Tapinarof (Pivotal) group): 1.6 (2.36)
mean (SD) DLQI total score (Week 40, OC, Vehicle (Pivotal) group): 2.0 (4.23)
DLQI Total Score, CFBL, Mean (Week 40 OC, Overall): −2.0
DLQI Total Score, CFBL, Median (Week 40 OC, Overall): −1.0
DLQI Total Score, Observed, Mean (Week 40 OC, Overall): 1.7
DLQI Total Score, Observed, Median (Week 40 OC, Overall): 1.0
DLQI Total Score, Percent CFBL, Mean (Week 40 OC, Overall): −41.6%
DLQI Total Score, Percent CFBL, Median (Week 40 OC, Overall): −72.1%
DLQI Total Score, CFBL, Mean [2]: −1.1
DLQI Total Score, CFBL, Median [2]: 0.0
DLQI Total Score, Observed, Mean [2]: 1.6
DLQI Total Score, Observed, Median [2]: 1.0
DLQI Total Score, Percent CFBL, Mean [2]: −25.0%
DLQI Total Score, Percent CFBL, Median [2]: −61.3%
DLQI Total Score, CFBL, Mean (Week 40 OC, Vehicle (Pivotal)): −3.9
DLQI Total Score, CFBL, Median (Week 40 OC, Vehicle (Pivotal)): −3.0
DLQI Total Score, Observed, Mean (Week 40 OC, Vehicle (Pivotal)): 2.0
DLQI Total Score, Observed, Median (Week 40 OC, Vehicle (Pivotal)): 0.0
DLQI Total Score, Percent CFBL, Mean (Week 40 OC, Vehicle (Pivotal)): −69.2%
DLQI Total Score, Percent CFBL, Median (Week 40 OC, Vehicle (Pivotal)): −88.9%
